Values quoted from earlier work as cited in patent publication US20240397939A1, “COMPOSITIONS COMPRISING DIFFERENT DRIFT RETARDING AGENTS” (BAYER CROPSCIENCE LP, priority 2021, published 2024).

Conditions: known HLB value, estimation by Griffin's method

Row | HLB | Substance
1 | 15 | Polysorbate 80 (polyoxyethylene sorbitan monooleate) [Tween® 80]
2 | 4.3 | Sorbitan monooleate [Span® 80]
